Data from BindingDB's records for patent US20230348467 (Zhejiang Hisun Pharmaceutical, 2023).

Target: T1, Tyrosine-protein phosphatase non-receptor type 11 (Homo sapiens, UniProt Q06124)
T1 sequence (Q06124 whole entry): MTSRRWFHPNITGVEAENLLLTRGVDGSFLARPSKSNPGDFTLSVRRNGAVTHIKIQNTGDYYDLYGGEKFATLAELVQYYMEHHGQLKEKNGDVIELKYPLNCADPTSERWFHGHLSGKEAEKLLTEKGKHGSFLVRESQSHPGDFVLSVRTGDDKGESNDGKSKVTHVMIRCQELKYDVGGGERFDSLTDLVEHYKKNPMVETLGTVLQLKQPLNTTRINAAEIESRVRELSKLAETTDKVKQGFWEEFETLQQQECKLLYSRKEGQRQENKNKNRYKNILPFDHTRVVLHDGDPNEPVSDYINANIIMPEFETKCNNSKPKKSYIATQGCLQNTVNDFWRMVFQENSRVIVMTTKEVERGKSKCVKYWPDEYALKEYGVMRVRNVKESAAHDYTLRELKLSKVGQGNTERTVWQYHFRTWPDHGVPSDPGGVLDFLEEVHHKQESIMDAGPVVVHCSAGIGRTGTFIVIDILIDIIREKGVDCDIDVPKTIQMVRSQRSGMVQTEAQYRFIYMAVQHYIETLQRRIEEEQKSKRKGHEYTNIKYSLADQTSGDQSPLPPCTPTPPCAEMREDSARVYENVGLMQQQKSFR
Assay: Determination of Allosteric Inhibition Activities of the Compounds of the Present Invention on SHP2
Procedure: he experimental process was briefly described as follows: Test compounds were first dissolved in DMSO to prepare storage solutions. […] Then, the compounds to be tested were added in a concentration range of 0.00004-10 uM and incubated at 25 C. for 60 minutes. Then DiFMUP (Thermo, D6567) was added in the reaction and incubated at 25 C. for 30 minutes. After incubation, readings were taken using a microplate reader (BMG) with excitation and emission wavelengths of 340 nm and 450 nm, respectively.

| IC50 [nM] | Structure (SMILES) |
| --- | --- |
| 7 | NC1(c2ccccc2)CCN(c2nc(C(=O)O)c3c(-c4cccc(Cl)c4Cl)n[nH]c3n2)CC1 [US20230348467, Compound 10] |
| 3 | NC(=O)c1nc(N2CCC(N)(c3cccc(O)c3)CC2)nc2[nH]nc(-c3cccc(Cl)c3Cl)c12 [US20230348467, Compound 51] |

| Structure (SMILES) | IC50 [nM] |
| --- | --- |
| NC(=O)c1nc(N2C3CCC2CC(N)C3)nc2[nH]nc(-c3cccc(Cl)c3Cl)c12 (stereo not drawn) [US20230348467, Compound 17] | 4 |
